From patent US11806407B2, “Refillable drug delivery by affinity homing” (UNIVERSITY OF NOTRE DAME DU LAC, priority 2018, dated 2023)
Where two headings read alike, the source gives them in different places. Each block holds one compound with its values, some of them ahead of it.

Experiments:
[1] = rats; cited from earlier work
[2] = cited from earlier work
[3] = known competitor or probe guests, cited from earlier work
[4] = Competition 1H-NMR to determine Keq of guests for CB[7]; assay type: binding
[5] = on the basis of fluorescence
[6] = mice, i.p., RTECS database; cited from earlier work
[7] = Weight, survival and morbidity in the tumor studies; conditions: 3 mg/kg/day doxorubicin equivalent, three consecutive days
MDA-MB-231 (luc+) tumor = assay: In vivo tumor model with hydrogel adjacent to the tumor; parameters: species or system mice; conditions: 3 mg/kg/day doxorubicin equivalent, three consecutive days
MDA-MB-231 cells = assay: MTT in vitro cytotoxicity assay; assay type: cell-based; conditions: Homo sapiens, 72 hrs
[8] = Solubility of bupivacaine alone and with CB[7]; assay type: physicochemical
[9] = NMR of bupivacaine bound to CB[7]; assay type: binding; conditions: preliminary, based on prior experience

Compound: cucurbit[7]uril [CB[7]]
LD50 [1]: > 250 mg/kg
degradation in vivo [2]: not appreciably degraded in vivo

Compound: CN(C)c1ccc2cc3ccc(N(C)C)cc3nc2c1 [Acridine Orange]
Keq for binding to CB[7], literature-reported [3]: 200000 M⁻¹

Compound: NCCCCCCN [1,6-diaminohexane]
Keq for binding to CB[7], literature-reported [3]: 8.9e+07 M⁻¹

Keq for binding to CB[7] ([4]; competition 1H-NMR in D2O, association constant): 2.1e+10 M⁻¹
fold less accumulation at the hydrogel than the strong conjugate [5]: 3 fold
Compound: CN1/C(=C/C=C/C=C/C2=[N+](CCCCCC(=O)NCCC(=O)NC34CC5CC(CC(C5)C3)C4)c3ccc(S(=O)(=O)[O-])cc3C2(C)C)C(C)(C)c2cc(S(=O)(=O)O)ccc21 [Ad-Am-Cy5]

Compound: CC(=O)NCCC(=O)NC12CC3CC(CC(C3)C1)C2 [Ada-Am-Ac]
Krel ([4]; model guest relative to competitive guest, average of three competition experiments): 0.89

Compound: COc1cccc2c1C(=O)c1c(O)c3c(c(O)c1C2=O)C[C@@](O)(C(=O)CO)C[C@@H]3O[C@H]1C[C@H](N)[C@H](O)[C@H](C)O1 [doxorubicin]
LD50 [6]: 11.2 mg/kg
tolerability (weight, survival) [7]: weight loss and poor survival outcomes
tumor growth (MDA-MB-231 (luc+) tumor): tumors continued to grow in spite of treatment
IC50 (MDA-MB-231 cells): 0.49 µM

water solubility ([8]; combined with CB[7]): very good water solubility
solubility ([8]; on its own): sparingly soluble
binding to CB[7] [9]: ~10^8 M^−1
Compound: CCCCN1CCCCC1C(=O)Nc1c(C)cccc1C (stereo not shown) [bupivacaine]

Compound: OC12CC3CC(CC(C3)C1)C2 [1-adamantanol]
Keq for binding to CB[7], literature-reported [3]: 2.3e+10 M⁻¹
Keq for binding to CB[7], literature-reported ([3]; listed as SM2): ~1e+10 M⁻¹

Compound: NCc1ccc(CN)cc1 [p-xylylenediamine]
Keq for binding to CB[7], literature-reported [3]: 1.78e+09 M⁻¹
Keq for binding to CB[7], literature-reported ([3]; listed as SM^−1): ~1e+09 M⁻¹
Keq for binding to CB[7], literature-reported ([3]; listed as pxylylenediamine): 1.84e+09 M⁻¹
